Patent EP0604667A1, “TRANEXAMIC ACID DERIVATIVE AND DERMATOLOGIC PREPARATION CONTAINING THE SAME” (SHISEIDO COMPANY LIMITED, priority 1992, dated 1994)

What was measured:
[1] = test system: deposition of melanin pigmentation; assay: Examination for depigmentation effect: lotion applied to skin after sunlight exposure, judged by the subjects; assay type: in vivo; details: for DEPIGMENTATION EFFECT / DEPI[…]: lotion with 1.0 weight% compound; for effect to prevent the deposition of melanin pigmentation after the skin was exposed to the sunlight: in words, text summary of the tables, test lotions compared with hydroquinone, tranexamic acid and no compound
Method: 60 subjects were disposed under sunlight for 4 hours in summer (2 hours × 2 days). The lotions were applied to skin of medial brachia for once in each morning and evening from 5 days after the day when the skin was exposed to the sun light for eight weeks. The one group consists of 10 subjects and six groups were given for the examination in accordance with the following prescriptions. […] The aqueous phase and the alcohol phase were prepared respectively, and both phase were mixed and dissolved. […] X: The number of subjects who judged the result was "extremely effective" and "effective" were less than 30 %. TABLE 1 Depigmentation effect was examined by using the following external preparations for skin in accordance with the above described condition. […] The alcohol phase and aqueous phase were prepared respectively, and both phase were mixed and dissolved. TABLE 3 Depigmentation effect was examined by using the following external preparations for skin in accordance with the above described condition. […] The alcohol phase and aqueous phase were prepared respectively, and both phase were mixed and dissolved.

face of subjects = assay: Examination for skin care effect: half-face application against comparison 1, judged by the subjects; assay type: in vivo, women
Method: One group of subjects consists of ten women and 3 groups of the subjects were given for the examination.
The effectiveness of three items (moisturising effect, texture of skin surface, maintenance (one day) of moisturising effect) were evaluated according to the following standards.
Ⓞ: The number of subjects who judged the result was "extremely effective" and "effective" were not less than 80 %. ○: The number of subjects who judged the result was "extremely effective" and "effective" were from 50% to 80%. △: The number of subjects who judged the result was "extremely effective" and "effective" were from 30% to 50%. X: The number of subjects who judged the result was "extremely effective " and "effective" were less than 30%.
Skin care effect of the examples was examined in accordance with the above-mentioned condition.

[2] = TABLE 5, same condition as TABLE 1
[3] = TABLE 6, lotion with 1.0 weight% compound, same condition as TABLE 2
[4] = TABLE 1, skin of medial brachia, morning and evening for eight weeks from 5 days after sunlight exposure (4 hours), 10 subjects per group
[5] = TABLE 3, same condition as TABLE 1
[6] = TABLE 2, lotion with 1.0 weight% compound on left half of face, every morning and night for two weeks, ten women per group
[7] = TABLE 2, maintenance (one day), lotion with 1.0 weight% compound on left half of face, every morning and night for two weeks, ten women per group
[8] = TABLE 4, lotion with 1.0 weight% compound, same condition as TABLE 2

Row | Compound | DEPIGMENTATION EFFECT [1, 2] | DEPIGMENTATION EFFECT [1, 4] | effect to prevent the deposition of melanin pigmentation after the skin was exposed to the sunlight [1] | MOISTURISING EFFECT (face of subjects; [6]) | TEXTURE OF SKIN SURFACE (face of subjects; [6]) | MAINTENANCE OF MOISTURISING EFFECT (face of subjects; [7]) | other results
1 | 4'-hydroxy phenyl trans-4-aminomethyl cyclohexane carboxylate hydrochloride [EXM.3-2] | Ⓞ (The number of subjects who judged the result was "extremely effective" and "effective" were not less than 80%.) |  |  |  |  |  | MAINTENANCE OF MOISTURISING EFFECT (face of subjects; [3]): Ⓞ (The number of subjects who judged the result was "extremely effective" and "effective" were not less than 80 %.); MOISTURISING EFFECT (face of subjects; [3]): Ⓞ (The number of subjects who judged the result was "extremely effective" and "effective" were not less than 80 %.); TEXTURE OF SKIN SURFACE (face of subjects; [3]): Ⓞ (The number of subjects who judged the result was "extremely effective" and "effective" were not less than 80 %.)
2 | Oc1ccc(O)cc1 [COMP.2, hydroquinone, reference compound] |  |  |  |  |  |  | DEPI[…] [1, 4]: △ (The number of subjects who judged the result was "extremely effective" and "effective" were from 30% to 50%.); DEPI[…] [1, 5]: △ (The number of subjects who judged the result was "extremely effective" and "effective" were from 30% to 50%.); DEPI[…] [1, 2]: △ (The number of subjects who judged the result was "extremely effective" and "effective" were from 30% to 50%.)
3 | NC[C@H]1CC[C@H](C(=O)O)CC1 [COMP.3, tranexamic acid] | △ (The number of subjects who judged the result was "extremely effective" and "effective" were from 30% to 50%.) |  |  |  |  |  | DEPIGMENTATION EFFECT [1, 5]: ○ (The number of subjects who judged the result was "extremely effective" and "effective" were from 50% to 80%.)
4 | NC[C@H]1CC[C@H](C(=O)Oc2ccc(O)cc2C(=O)O)CC1 [EXM.1-1, 2-(trans-4-aminomethylcyclohexylcarbonyloxy)-5-hydroxy benzoic acid] |  | Ⓞ (The number of subjects who judged the result was "extremely effective" and "effective" were not less than 80%.) | excellent | Ⓞ (The number of subjects who judged the result was "extremely effective" and "effective" were not less than 80 %.) | Ⓞ (The number of subjects who judged the result was "extremely effective" and "effective" were not less than 80 %.) | Ⓞ (The number of subjects who judged the result was "extremely effective" and "effective" were not less than 80 %.) | 
5 | NC[C@H]1CC[C@H](C(=O)Oc2ccc(O)c(C(=O)O)c2)CC1 [EXM.1-2, 5-(trans-4-aminomethylcyclohexylcarbonyloxy)-2-hydroxy benzoic acid] |  | Ⓞ (The number of subjects who judged the result was "extremely effective" and "effective" were not less than 80%.) | excellent | Ⓞ (The number of subjects who judged the result was "extremely effective" and "effective" were not less than 80 %.) | Ⓞ (The number of subjects who judged the result was "extremely effective" and "effective" were not less than 80 %.) | Ⓞ (The number of subjects who judged the result was "extremely effective" and "effective" were not less than 80 %.) | 
6 | Cl.NC[C@H]1CC[C@H](C(=O)Oc2ccc(O)cc2C(=O)O)CC1 [EXM.1-3, 2-(trans-4-aminomethylcyclohexylcarbonyloxy)-5-hydroxy benzoic acid hydrochloride] |  | Ⓞ (The number of subjects who judged the result was "extremely effective" and "effective" were not less than 80%.) | excellent | Ⓞ (The number of subjects who judged the result was "extremely effective" and "effective" were not less than 80 %.) | Ⓞ (The number of subjects who judged the result was "extremely effective" and "effective" were not less than 80 %.) | Ⓞ (The number of subjects who judged the result was "extremely effective" and "effective" were not less than 80 %.) | 
7 | NC[C@H]1CC[C@H](C(=O)NC[C@H]2CC[C@H](C(=O)O)CC2)CC1 [EXM.2-1, Trans-4-(trans-4-aminomethylcyclohexanecarbonyl) aminomethyl cyclohexane carboxylic acid] |  |  |  |  |  |  | DEPIGMENTATION EFFECT [1, 5]: Ⓞ (The number of subjects who judged the result was "extremely effective" and "effective" were not less than 80%.); MAINTENANCE OF MOISTURISING EFFECT (face of subjects; [8]): Ⓞ (The number of subjects who judged the result was "extremely effective" and "effective" were not less than 80 %.); MOISTURISING EFFECT (face of subjects; [8]): Ⓞ (The number of subjects who judged the result was "extremely effective" and "effective" were not less than 80 %.); TEXTURE OF SKIN SURFACE (face of subjects; [8]): Ⓞ (The number of subjects who judged the result was "extremely effective" and "effective" were not less than 80 %.)
8 | NC[C@H]1CC[C@H](C(=O)Oc2ccc(O)cc2)CC1 [EXM.3-1, 4'-hydroxy phenyl trans-4-aminomethyl cyclohexane carboxylate] | Ⓞ (The number of subjects who judged the result was "extremely effective" and "effective" were not less than 80%.) |  |  |  |  |  | MAINTENANCE OF MOISTURISING EFFECT (face of subjects; [3]): Ⓞ (The number of subjects who judged the result was "extremely effective" and "effective" were not less than 80 %.); MOISTURISING EFFECT (face of subjects; [3]): Ⓞ (The number of subjects who judged the result was "extremely effective" and "effective" were not less than 80 %.); TEXTURE OF SKIN SURFACE (face of subjects; [3]): Ⓞ (The number of subjects who judged the result was "extremely effective" and "effective" were not less than 80 %.)
